Consider nine compounds from US20260317324A1, “BIFUNCTIONAL COMPOUNDS FOR DEGRADING BRAF VIA UBIQUITIN PROTEOSOME PATHWAY” (Nurix Therapeutics, Inc., priority 2023, published 2026).

By DC50 is commonly meant the midpoint of the concentration-degradation curve. In general, Dmax refers to the largest share of the target that was removed.

Format in all cases: cell-based
In assay [1] the target is T1, BRAF G466V (Homo sapiens, UniProt P15056, G466V).
T1 construct: Horizon Discovery (HCT-116 BRAF−/− cells); host or cells: HCT-116 BRAF−/− cells, clone 8, lentiviral transduction
The assay can be described thus: BRAF HiBiT degradation assay, C-terminal HiBiT-tagged BRAF G466V overexpressed in HCT-116 BRAF−/− cells (clone 8), Nano-Glo HiBiT Lytic assay. An outline of the steps: (§1)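 HCT-116 BRAF−/− clones stably overexpressing C-terminal HiBiT-tagged mutant BRAF were seeded 24 h before treatment with an 11-point half-log series from 1 μM to 0.01 nM (0.2% DMSO final). Remaining protein was read by HiBiT lytic luminescence, with DMSO and wildtype-cell controls. DC50 was taken as the fitted concentration at 50% remaining protein; observed Dmax is reported relative to DMSO.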
Background: With HiBiT, luminescence reflects the tagged protein that the partner subunit can reach.

The target of assay [2] is T2, BRAF V600E (Homo sapiens, UniProt P15056, V600E).
T2 construct: endogenous C-terminal HiBiT fusion tag on BRAF V600E allele; endogenous in cells; host or cells: A375 clone 1F10 (CRISPR-Cas9 knock-in of the HiBiT tag; parental A375 from ATCC)
The assay can be described thus: BRAF HiBiT degradation assay, C-terminal HiBiT-tagged BRAF V600E A375 cells (clone 1F10), Nano-Glo HiBiT Lytic assay. The conditions noted are these: for Dmax: A-375. The gist of the method: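 A375 cells (clone 1F10, endogenous C-terminal HiBiT on BRAF V600E) were seeded at 10,000 cells/well, grown 24 h, then dosed in duplicate with an 11-point series from 1 μM to 0.01 nM (0.2% DMSO). Nano-Glo HiBiT lytic luminescence was normalised to DMSO and wildtype-A375 background; DC50 was read at 50% protein remaining, alongside observed Dmax.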

Assay [3] addresses T3, BRAF D594G (Homo sapiens, UniProt P15056, D594G).
T3 construct: Horizon Discovery (HCT-116 BRAF−/− cells); host or cells: HCT-116 BRAF−/− cells, clone 63, lentiviral transduction
The assay can be described thus: BRAF HiBiT degradation assay, C-terminal HiBiT-tagged BRAF D594G overexpressed in HCT-116 BRAF−/− cells (clone 63), Nano-Glo HiBiT Lytic assay. The gist of the method:
as §1

Assay [4] deals with T4, BRAF G469A (Homo sapiens, UniProt P15056, G469A).
T4 construct: Horizon Discovery (HCT-116 BRAF−/− cells); host or cells: HCT-116 BRAF−/− cells, clone 34, lentiviral transduction
The assay can be described thus: BRAF HiBiT degradation assay, C-terminal HiBiT-tagged BRAF G469A overexpressed in HCT-116 BRAF−/− cells (clone 34), Nano-Glo HiBiT Lytic assay. The gist of the method: as §1

Where [5] appears, read: BRAF G466V, DC50 at 50%: fitted conc. at Y=50.
Setting [6] is: HCT-116, BRAF G466V, percentage protein degraded at maximal compound effect relative to DMSO.
The mark [7] stands for this setting: A375 (BRAF V600E), DC50 at 50%: fitted conc. at Y=50.
Where [8] appears, read: A375 (BRAF V600E), percentage protein degraded at maximal compound effect relative to DMSO.
[9] abbreviates: BRAF D594G, DC50 at 50%: fitted conc. at Y=50.
Setting [10] is: HCT-116, BRAF D594G, percentage protein degraded at maximal compound effect relative to DMSO.
Setting [11] is: Class 2, BRAF G469A, DC50 at 50%: fitted conc. at Y=50.
Setting [12] is: HCT-116, Class 2, BRAF G469A, percentage protein degraded at maximal compound effect relative to DMSO.
[13] abbreviates: BRAF G466V (Class 3), HCT-116 BRAF−/− cells, DC50 at 50% degradation.
The mark [14] stands for this setting: BRAF G466V (Class 3), HCT-116 BRAF−/− cells, observed Dmax relative to DMSO control.
Where [15] appears, read: A375 (BRAF V600E, Class 1), DC50 at 50% degradation.
The mark [16] stands for this setting: A375 (BRAF V600E, Class 1), observed Dmax, % protein degraded relative to DMSO control.
Setting [17] is: BRAF D594G (Class 3), HCT-116 BRAF−/− cells, DC50 at 50% degradation.
Setting [18] is: BRAF D594G (Class 3), HCT-116 BRAF−/− cells, observed Dmax relative to DMSO control.
Where [19] appears, read: BRAF G469A (Class 2), HCT-116 BRAF−/− cells, DC50 at 50% degradation.
Setting [20] is: BRAF G469A (Class 2), HCT-116 BRAF−/− cells, observed Dmax relative to DMSO control.

T2 sequence (P15056 whole entry V600E, the tested form may be a part): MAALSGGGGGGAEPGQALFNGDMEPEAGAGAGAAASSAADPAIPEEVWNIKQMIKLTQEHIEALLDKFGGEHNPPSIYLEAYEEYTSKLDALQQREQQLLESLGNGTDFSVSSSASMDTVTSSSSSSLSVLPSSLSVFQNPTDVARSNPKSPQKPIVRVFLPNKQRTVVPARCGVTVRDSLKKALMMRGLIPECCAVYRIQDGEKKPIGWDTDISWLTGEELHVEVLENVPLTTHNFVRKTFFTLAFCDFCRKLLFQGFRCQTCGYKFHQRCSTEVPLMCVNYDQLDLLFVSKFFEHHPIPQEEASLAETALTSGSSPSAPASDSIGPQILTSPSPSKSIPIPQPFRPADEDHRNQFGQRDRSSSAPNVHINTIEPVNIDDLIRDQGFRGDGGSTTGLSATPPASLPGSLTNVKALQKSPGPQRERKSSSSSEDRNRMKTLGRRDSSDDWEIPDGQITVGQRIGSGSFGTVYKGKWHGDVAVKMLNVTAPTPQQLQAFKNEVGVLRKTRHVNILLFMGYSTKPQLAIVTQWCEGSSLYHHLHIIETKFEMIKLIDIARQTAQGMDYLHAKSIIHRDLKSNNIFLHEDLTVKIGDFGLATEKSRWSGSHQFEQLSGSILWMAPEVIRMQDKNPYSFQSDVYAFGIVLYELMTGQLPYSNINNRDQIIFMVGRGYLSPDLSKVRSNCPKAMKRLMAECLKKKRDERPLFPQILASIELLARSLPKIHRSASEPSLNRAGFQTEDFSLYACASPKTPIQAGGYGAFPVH
T3 sequence (P15056 whole entry D594G): as the sequence (P15056 whole entry V600E, the tested form may be a part) above, with D594G, E600V counted along it
T1 sequence (P15056 whole entry G466V): as the sequence (P15056 whole entry V600E, the tested form may be a part) above, with G466V, E600V counted along it
T4 sequence (P15056 whole entry G469A): as the sequence (P15056 whole entry V600E, the tested form may be a part) above, with G469A, E600V counted along it

For `CCCS(=O)(=O)Nc1cccc(-c2nc(C(C)(C)C)sc2-c2ccnc(Nc3cnn(CC4CCN(C[C@H]5CC[C@H](Oc6ccc(C7CCC(=O)NC7=O)cc6)CC5)CC4)c3)n2)c1F` (mixture of isomers) [Compound 84, N-(3-{2-tert-butyl-5-[2-({1-[(1-{[(1r,4r)-4-{4-[(3RS)-2,6-dioxopiperidin-3-yl]phenoxy}cyclohexyl]methyl}piperidin-4-yl)methyl]-1H-pyrazol-4-yl}amino)pyrimidin-4-yl]-1,3-thiazol-4-yl}-2-fluorophenyl)propane-1-sulfonamide], the half-maximal degradation concentration (DC50) is greater than 500 nM in assay [1] (setting [5]), 50 to 500 nM in assay [2] (setting [7]), greater than 500 nM in assay [3] (setting [9]) and greater than 500 nM in assay [4] (setting [11]). For the same compound, the Dmax was less than 30% in assay [1] (setting [6]), greater than 70% in assay [2] (setting [8]), 30 to 70% in assay [3] (setting [10]) and less than 30% in assay [4] (setting [12]).

Regarding `CCCS(=O)(=O)Nc1cccc(-c2nc(C(C)(C)C)sc2-c2ccnc(N[C@H]3CC[C@@H](N4CCN(CC5CCN(c6ccc(C7CCC(=O)NC7=O)cn6)CC5)CC4)CC3)n2)c1F` (mixture of isomers) [Compound 134, N-{3-[2-tert-butyl-5-(2-{[(1s,4s)-4-{4-[(1-{5-[(3RS)-2,6-dioxopiperidin-3-yl]pyridin-2-yl}piperidin-4-yl)methyl]piperazin-1-yl}cyclohexyl]amino}pyrimidin-4-yl)-1,3-thiazol-4-yl]-2-fluorophenyl}propane-1-sulfonamide], the DC50 was in the range of 10 to 50 nM in assay [1] (setting [5]), 10 to 50 nM in assay [2] (setting [7]), 10 to 50 nM in assay [3] (setting [9]) and 50 to 500 nM in assay [4] (setting [11]). For the same compound, the greatest degradation seen (Dmax) in assay [1] (setting [6]) is 30 to 70%; in assay [2] (setting [8]), greater than 70%; in assay [3] (setting [10]), 30 to 70%; in assay [4] (setting [12]), 30 to 70%.

For `CCCS(=O)(=O)Nc1cccc(-c2nc(C(C)(C)C)sc2-c2ccnc(Nc3cnn(C4CCN(C(=O)CN5CCC(c6ccc(NC7CCC(=O)NC7=O)cc6)CC5)CC4)c3)n2)c1F` (racemic) [Compound 108, Rac-N-{3-[2-tert-butyl-5-(2-{[1-(1-{2-[4-(4-{[(3R)-2,6-dioxopiperidin-3-yl]amino}phenyl)piperidin-1-yl]acetyl}piperidin-4-yl)-1H-pyrazol-4-yl]amino}pyrimidin-4-yl)-1,3-thiazol-4-yl]-2-fluorophenyl}propane-1-sulfonamide], the DC50 in assay [1] (setting [5]) is greater than 500 nM; in assay [2] (setting [7]), less than 10 nM; in assay [3] (setting [9]), greater than 500 nM; in assay [4] (setting [11]), greater than 500 nM. The Dmax was less than 30% in assay [1] (setting [6]), greater than 70% in assay [2] (setting [8]), 30 to 70% in assay [3] (setting [10]) and less than 30% in assay [4] (setting [12]).

For `O=C1CCN(c2ccc(N3CCC(CN4CCN(c5cnc(-n6cc(-c7cc(Cl)cc(NS(=O)(=O)N8CCCC8)c7F)c(-c7ccncc7)n6)nc5)CC4)CC3)cc2)C(=O)N1` [Compound 358, N-[5-chloro-3-(1-{5-[4-({1-[4-(2,4-dioxo-1,3-diazinan-1-yl)phenyl]piperidin-4-yl}methyl)piperazin-1-yl]pyrimidin-2-yl}-3-(pyridin-4-yl)-1H-pyrazol-4-yl)-2-fluorophenyl]pyrrolidine-1-sulfonamide], the DC50 is 10 to 50 nM in assay [1] (setting [13]), less than 10 nM in assay [2] (setting [15]), less than 10 nM in assay [3] (setting [17]) and greater than 500 nM in assay [4] (setting [19]). In addition, the Dmax was 30 to 70% in assay [1] (setting [14]), greater than 70% in assay [2] (setting [16]), 30 to 70% in assay [3] (setting [18]) and 30 to 70% in assay [4] (setting [20]).

As to `C[C@@H]1CN(c2ccc(-n3cc(-c4cc(Cl)cc(NS(=O)(=O)N5CC[C@@H](F)C5)c4F)c(-c4ccncc4)n3)cc2)CCN1CC1CCN(c2ccc(C3CCC(=O)NC3=O)cn2)CC1` (mixture of isomers) [Compound 318, (3R)—N-[5-chloro-3-(1-{4-[(3R)-4-[(1-{5-[(3RS)-2,6-dioxopiperidin-3-yl]pyridin-2-yl}piperidin-4-yl)methyl]-3-methylpiperazin-1-yl]phenyl}-3-(pyridin-4-yl)-1H-pyrazol-4-yl)-2-fluorophenyl]-3-fluoropyrrolidine-1-sulfonamide], the DC50 in assay [1] (setting [13]), in assay [2] (setting [15]), in assay [3] (setting [17]) and in assay [4] (setting [19]) was less than 10 nM each time. The Dmax in assay [1] (setting [14]), in assay [2] (setting [16]), in assay [3] (setting [18]) and in assay [4] (setting [20]) was greater than 70% throughout.

Turning to `CCCS(=O)(=O)Nc1cccc(-c2cn(C3CCN(C(=O)C4CCN(C(=O)C5CCN(c6ccc(C7CCC(=O)NC7=O)cn6)CC5)CC4)CC3)nc2-c2ccncc2)c1F` (racemic) [Compound 7, Rac-N-[3-(1-{1-[1-(1-{5-[(3R)-2,6-dioxopiperidin-3-yl]pyridin-2-yl}piperidine-4-carbonyl)piperidine-4-carbonyl]piperidin-4-yl}-3-(pyridin-4-yl)-1H-pyrazol-4-yl)-2-fluorophenyl]propane-1-sulfonamide], the half-maximal degradation concentration (DC50) in assay [1] (setting [5]) was 50 to 500 nM; in assay [2] (setting [7]), 10 to 50 nM; in assay [3] (setting [9]), greater than 500 nM; in assay [4] (setting [11]), greater than 500 nM. In addition, the Dmax in assay [1] (setting [6]) was 30 to 70%; in assay [2] (setting [8]), greater than 70%; in assay [3] (setting [10]) it was 30 to 70%; in assay [4] (setting [12]), 30 to 70%.

As for `CCCS(=O)(=O)Nc1cccc(-c2nc(C(C)(C)C)sc2-c2ccnc(Nc3ccc(C4CCN(CC5CCN(c6ccc([C@H]7CCC(=O)NC7=O)cc6)CC5)CC4)cc3)n2)c1F` [Compound 89, N-[3-(2-tert-butyl-5-{2-[(4-{1-[(1-{4-[(3R)-2,6-dioxopiperidin-3-yl]phenyl}piperidin-4-yl)methyl]piperidin-4-yl}phenyl)amino]pyrimidin-4-yl}-1,3-thiazol-4-yl)-2-fluorophenyl]propane-1-sulfonamide], the half-maximal degradation concentration (DC50) is greater than 500 nM in assay [1] (setting [5]), 10 to 50 nM in assay [2] (setting [7]), greater than 500 nM in assay [3] (setting [9]) and greater than 500 nM in assay [4] (setting [11]). The Dmax in assay [1] (setting [6]) was 30 to 70%; in assay [2] (setting [8]), greater than 70%; in assay [3] (setting [10]), 30 to 70%; in assay [4] (setting [12]), 30 to 70%.

With `CCCS(=O)(=O)Nc1cccc(-c2nc(C(C)(C)C)sc2-c2ccnc(Nc3cnn(C4CCN(CC[C@H]5CCN(c6ccc(C7CCC(=O)NC7=O)cn6)C5)CC4)c3)n2)c1F` (mixture of isomers) [Compound 77, N-{3-[2-tert-butyl-5-(2-{[1-(1-{2-[(3S)-1-{5-[(3RS)-2,6-dioxopiperidin-3-yl]pyridin-2-yl}pyrrolidin-3-yl]ethyl}piperidin-4-yl)-1H-pyrazol-4-yl]amino}pyrimidin-4-yl)-1,3-thiazol-4-yl]-2-fluorophenyl}propane-1-sulfonamide], the DC50 in assay [1] (setting [5]) was greater than 500 nM; in assay [2] (setting [7]) it was 10 to 50 nM; in assay [3] (setting [9]), greater than 500 nM; in assay [4] (setting [11]) it was greater than 500 nM. The Dmax in assay [1] (setting [6]) is less than 30%; in assay [2] (setting [8]) it was 30 to 70%; in assay [3] (setting [10]), 30 to 70%; in assay [4] (setting [12]), less than 30%.

With `CCCS(=O)(=O)Nc1cccc(-c2nc(-c3ccc(N4CCN(CC5CCN(c6ccc(C7CCC(=O)NC7=O)cn6)CC5)CC4)cc3)sc2-c2ccnc(N)n2)c1F` (racemic) [Compound 187, Rac-N-{3-[5-(2-aminopyrimidin-4-yl)-2-(4-{4-[(1-{5-[(3R)-2,6-dioxopiperidin-3-yl]pyridin-2-yl}piperidin-4-yl)methyl]piperazin-1-yl}phenyl)-1,3-thiazol-4-yl]-2-fluorophenyl}propane-1-sulfonamide], the DC50 in assay [1] (setting [5]) was 10 to 50 nM; in assay [2] (setting [7]) it was less than 10 nM; in assay [3] (setting [9]) it was less than 10 nM; in assay [4] (setting [11]), 10 to 50 nM. For the same compound, the Dmax in assay [1] (setting [6]) was 30 to 70%; in assay [2] (setting [8]), greater than 70%; in assay [3] (setting [10]), 30 to 70%; in assay [4] (setting [12]), 30 to 70%.
